Reference: US7060692B2, “Active ingredient combinations comprising insecticidal and acaricidal properties” (priority 2000, dated 2006)

Experiments:
Myzus persicae = assay: Myzus test (cabbage leaves dipped); type: in vivo; settings: single active compound, 1.6 ppm, cabbage leaves (Brassica oleracea) dipped
Procedure: (§1) To produce a suitable preparation of active compound, 1 part by weight of active compound is mixed with the stated amounts of solvent and emulsifier, and the concentrate is diluted with water to the desired concentrations.
Cabbage leaves (Brassica oleracea), which are heavily infested by the peach aphid (Myzus persicae) are treated by being dipped into the preparation of active compound of the desired concentration.
After the desired period of time, the kill in % is determined. 100% means that all animals have been killed; 0% means that none of the animals have been killed. The kill rates determined are calculated using Colby's formula.

Aphis gossypii = Aphis gossypii test (cotton leaves dipped); type: in vivo; settings: single active compound, 1.6 ppm, cotton leaves (Gossypium hirsutum) dipped
Procedure: as §1
Cotton leaves (Gossypium hirsutum), which are heavily infested by the cotton aphid (Aphis Gossypii) are treated by being dipped into the preparation of active compound of the desired concentration.
After the desired period of time, the kill in % is determined. 100% means that all aphids have been killed; 0% means that none of the aphids have been killed. The kill rates determined are calculated using Colby's formula.

| SMILES | Kill rate in % after 6d (Myzus persicae) | Kill rate in % after 6d (Aphis gossypii) |
| --- | --- | --- |
| CC[S+]([O-])CCSP(=O)(OC)OC (centres unmarked) [oxydemeton-methyl] | 0% |  |
| Cc1nc(N(C)C)nc(OC(=O)N(C)C)c1C [pirimicarb] |  | 5% |
